{"source": "paper PMC8824312", "about": "(Bioorganic chemistry, 2021)", "key": {"[1]": {"target": "T1, Salicylate hydroxylase (NahG) (Pseudomonas putida, UniProt P23262)", "T1 sequence (P23262 1-434)": "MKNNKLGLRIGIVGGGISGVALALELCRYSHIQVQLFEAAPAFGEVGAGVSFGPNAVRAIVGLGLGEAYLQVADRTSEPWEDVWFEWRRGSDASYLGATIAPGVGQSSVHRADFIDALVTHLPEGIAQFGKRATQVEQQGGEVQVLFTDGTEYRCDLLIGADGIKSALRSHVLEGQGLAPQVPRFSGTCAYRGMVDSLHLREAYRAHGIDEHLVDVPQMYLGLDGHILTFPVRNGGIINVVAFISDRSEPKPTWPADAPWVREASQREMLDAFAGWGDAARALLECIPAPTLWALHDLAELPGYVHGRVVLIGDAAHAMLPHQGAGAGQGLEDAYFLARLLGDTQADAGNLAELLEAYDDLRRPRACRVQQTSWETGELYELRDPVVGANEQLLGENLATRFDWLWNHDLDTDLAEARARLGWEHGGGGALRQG", "assay": "fluorometric titration"}, "[2]": {"target": "T1, Salicylate hydroxylase (NahG)", "assay": "fluorometric titration", "type": "binding"}, "[3]": {"substrate": "NC(=O)C1=CN([C@@H]2O[C@H](COP(=O)(O)OP(=O)(O)OC[C@H]3O[C@@H](n4cnc5c(N)ncnc54)[C@H](O)[C@@H]3O)[C@@H](O)[C@H]2O)C=CC1", "assay": "initial rate of NADH consumption, spectrophotometric", "type": "biochemical, Pseudomonas putida", "conditions": "pH 8.5, I = 0.21 M (NaCl), 25 °C, salicylate, FAD as cofactor"}}, "note": "Read-outs that look alike come from different tables or passages of the source.", "data": [{"molecule": "Cc1cc2nc3c(=O)[nH]c(=O)nc-3n(C[C@H](O)[C@H](O)[C@H](O)COP(=O)(O)OP(=O)(O)OC[C@H]3O[C@@H](n4cnc5c(N)ncnc54)[C@H](O)[C@@H]3O)c2cc1C", "note": "[Flavin adenine dinucleotide]", "values": [{"measurement": "Kd", "setting": "[1]", "result": "36 ± 8", "unit": "nM"}]}, {"molecule": "O=C(O)c1ccccc1O", "note": "[salicylate]", "values": [{"measurement": "Kd", "setting": "[2]", "result": "280 ± 30", "unit": "nM"}]}, {"molecule": "Cc1cc2nc3c(=O)[nH]c(=O)nc-3n(C[C@H](O)[C@H](O)[C@H](O)COP(=O)(O)O)c2cc1C", "note": "[riboflavin 5′-monophosphate]", "values": [{"measurement": "Kd", "setting": "[1]", "result": "2200 ± 200", "unit": "nM"}]}, {"molecule": "Salicylate hydroxylase (NahG) (Pseudomonas putida) (protein) MKNNKLGLRIGIVGGGISGVALALELCRYSHIQVQLFEAAPAFGEVGAGVSFGPNAVRAIVGLGLGEAYLQVADRTSEPWEDVWFEWRRGSDASYLGATIAPGVGQSSVHRADFIDALVTHLPEGIAQFGKRATQVEQQGGEVQVLFTDGTEYRCDLLIGADGIKSALRSHVLEGQGLAPQVPRFSGTCAYRGMVDSLHLREAYRAHGIDEHLVDVPQMYLGLDGHILTFPVRNGGIINVVAFISDRSEPKPTWPADAPWVREASQREMLDAFAGWGDAARALLECIPAPTLWALHDLAELPGYVHGRVVLIGDAAHAMLPHQGAGAGQGLEDAYFLARLLGDTQADAGNLAELLEAYDDLRRPRACRVQQTSWETGELYELRDPVVGANEQLLGENLATRFDWLWNHDLDTDLAEARARLGWEHGGGGALRQG", "values": [{"measurement": "Km", "setting": "[3]", "result": 27, "unit": "µM"}]}]}
